Tests used:
[1] = test system: Plasmodium vinckei, petterei or chabaudi; assay: Therapeutic index in infected mice (antimalaria activity compared with semi-chronic toxicity); assay type: in vivo; conditions: i.p. or s.c., twice a day for four days, ratio of activity over toxicity (LD50)
Method: In order to evaluate the therapeutic index of the different products, the activity of these products was tested in vivo and compared with […] toxicity in animals. This activity was measured using the test described by PETERS W. (Chemotherapy and Drug resistance in Malaria, 1970). A compound was administered for four consecutive days to mice previously infected with Plasmodium vinckei, petterei or chabaudi. The said compound was dissolved in a 0.9% NaCl solution. The preparations were thus administered intraperitoneally or subcutaneously in male Swiss mice infected by intravenous injection of Plasmodium petterei or Plasmodium chadaudi (10^6 infected cells). The compound was administered twice a day for four consecutive days, the first injection being performed two hours after the infestation and the second, 10 hours later. The parasitemia was determined on blood smears the day after the end of treatment. Toxicity was measured in vivo following the same schedule, the animals having received, under the same administration conditions as above, two injections per day for four days (semi-chronic toxicity). The results are expressed in lethal dose 50 (LD50), i.e. the dose causing death in 50% of the animals.
The results of these trials are summarized in Table I, below, and expressed as therapeutic index, or the ratio of activity over toxicity measured under the identical conditions described above.

[2] = test system: Babesia bovis, Babesia canis; assay: In vitro antibabesia activity, (3H) hypoxanthine incorporation; assay type: cell-based; conditions: score from ED50 of (3H) hypoxanthine incorporation
Source text: The screening process for antimalaria activity, based on parasite incorporation of (^3 H) hypoxanthine was used to test the antimetabolic activity of such components against Babesia bovis, Babesia canis. A tight relationship was found between the rate of (^3 H) hypoxanthine incorporation using standard measurements and the percentage of parasitized cells determined by microscopy. […] The score was ++ for the same activity at a concentration of 0.01 to 0.1 micromoles and finally + for a concentration under or equal to 1 micromole.

[3] = test system: P. falciparum (FVO isolate); assay: Antimalaria activity of G25 in Aotus lemurinus monkey infected by P. falciparum FVO isolate; assay type: in vivo
Source text: Besides chimpanzees, only two South American monkey species, Aotus and Saimiri seirius, can be infected by P. falciparum. Currently, infection of Aotus monkeys with the human parasite is the best, and quasi-unique, model for evaluating therapeutic or vaccinal interventions against malaria (Collins W. E., Gallaud C. G., Sullivan J. S., and Morris C. L., "Selections of different strains of Plasmodium falciparum for testing blood stages in Aotus nancymal monkeys" An. J. Trop. Med. Hyg., 1994, 51 (2) 224-232).
The antimalaria activity was thus evaluated in the Aotus lemurinus monkey infected by the FVO (falciparum Vietnam Oaknoll) isolate of P. falciparum. This isolate is chloroquine-resistant and inevitably lethal for Aotus monkeys at the "Fundacion Centro de Primates" at the University del Valle, Cali, Colombia.
Treatment with G25 (dissolved in 0.9% NaCl) was initiated when the parasitemia reached 5.6%; 16 doses (0.2 mg/kg b.i.d. for 8 days) were given. […] The parasitemia in a monkey treated by combination sulfadoxine/pyrimethamine (FANSIDAR) is given for comparison.
In all, 15 monkeys were infected, then treated with G25 given by intramuscular injections at doses ranging from 0.010 to 0.2 mg/kg.

[4] = Maximal tolerable dose and therapeutic index in the monkey; conditions: in vivo

Compound | Therapeutic index [1] | Antibabesia activity at 10 millimoles [2] | Decline in parasitemia ([3]; FVO isolate, 0.2 mg/kg b.i.d. for 8 days, treatment started at 5.6% parasitemia) | minimal effective dose ([3]; Plasmodium falciparum, in Primates, im, 4380 h, intramuscular, 6 months follow-up, read-out: Lowest dose with complete cure (validated by PCR), no recurrences) | Activity at 0.01 mg/kg ([3]; intramuscular, 0.01 mg/kg) | MTD [4] | selectivity ratio ([4]; read-out: therapeutic index (LD50/ED50) in the monkey)
CCC[N+](CCC)(CCC)CCCCCCCCCCCCCCCC[N+](CCC)(CCC)CCC.[Br-].[Br-] [EXAMPLE 9, N,N,N,N',N',N'-hexapropyl-1,16-hexadecanediaminium dibromide] | 36 | +++ (a 50% inhibition of (^3 H) hypoxanthine incorporation (ED50), these molecules having a concentration less than or equal to 0.01 micromoles) |  |  |  |  | 
CCC[N+](CCC)(CCC)CCCCCCCCCCCCCCCC[N+](CCC)(CCC)CCC.[Br-].[Br-] [EXAMPLE 12, N,N,N,N',N',N'-hexapropyl-1,16-hexadecanediaminium dibromide] | 11 | ++ (the same activity at a concentration of 0.01 to 0.1 micromoles) |  |  |  |  | 
C[N+]1(CCCCCCCCCCCCCC[N+]2(C)CCCC2CO)CCCC1CO (stereo not shown) [EXAMPLE 18, 1,1'-(1,14-tetradecanediyl)bis(2-hydroxymethl-1-methylpyrrolidium) dibromide] | 22 | +++ (a 50% inhibition of (^3 H) hypoxanthine incorporation (ED50), these molecules having a concentration less than or equal to 0.01 micromoles) |  |  |  |  | 
C[N+]1(CCCCCCCCCCCCCCCC[N+]2(C)CCCC(CO)C2)CCCC(CO)C1 (stereo not shown) [EXAMPLE 20] | 17 | +++ (a 50% inhibition of (^3 H) hypoxanthine incorporation (ED50), these molecules having a concentration less than or equal to 0.01 micromoles) |  |  |  |  | 
C[N+]1(CCCCCCCCCCCCCCCC[N+]2(C)CCCC2)CCCC1 [Example G25] |  |  | decline in parasitemia was evident at the second dose | 0.03 mg/kg | active (parasite clearance) but did not lead to complete cure (recurrence observed) | ~1.5 mg/kg | > 50
